The source of these data is ChEMBL document CHEMBL1777687, “Structure stability/activity relationships of sulfone stabilized N,N-dichloroamines” (Bioorg Med Chem Lett, 2011).

Structures are written as SMILES. ≈ marks a conversion by molar mass, not a printed value.

The subject of series [1] is Escherichia coli. As to the kind of experiment: Bactericidal activity against Escherichia coli ATCC 25922 after 1 hr by CLSI M26-A method. The class given is functional. Particulars: ATCC 25922, 1 h.
Series [2] relates to Staphylococcus aureus. As to the kind of experiment: Bactericidal activity against Staphylococcus aureus ATCC 29213 after 1 hr by CLSI M26-A method. Type of series: functional. Particulars: ATCC 29213, 1 h.
The test system of series [3] is Candida albicans. The series is described as follows: Fungicidal activity against Candida albicans ATCC 10231 after 1 hr by CLSI M26-A method. The note with it: ATCC 10231, 1 h. The class given is functional.
Series [4] can be described thus: Chemical stability of the compound assessed as half life in acetate buffer at pH 4. The class given is physicochemical.
Series [5] in a line: Chemical stability of the compound assessed as half life in phosphate buffer at pH 7. The class given is physicochemical.
A short description of series [6]: Chemical stability of the compound assessed as half life in 0.6% borate buffer at pH 7. The class given is physicochemical.

`CC(C)(CC[N+](C)(C)C)N(Cl)Cl.[Cl-]`: the MBC in series [1] and in series [2] was 2 µg/mL each time. In addition, the MFC in series [3] was determined as 64 µg/mL. The half-life in series [4] is greater than 281 days; in series [5], greater than 210 days.

Consider `CC(C)(CCC[N+](C)(C)C)N(Cl)Cl.[Cl-]`, for which the MBC amounted to 8 µg/mL in series [1] and 2 µg/mL in series [2]. For the same compound, the MFC in series [3] came to 256 µg/mL. Besides, the half-life in series [4] was 80 days; in series [5] it was 56 days.

In the case of `CC(C)(CCS(=O)(=O)CCS(=O)(=O)O)N(Cl)Cl`, the MBC in series [1] is 8 µg/mL (≈ 24.4 µM); in series [2], 2 µg/mL (≈ 6.09 µM). In series [3], this compound yielded an MFC of 16 µg/mL (≈ 48.7 µM). Moreover, the half-life in series [4] and in series [5] was greater than 342 days throughout.

For the compound `CC(C)(CCS(=O)(=O)CCCS(=O)(=O)O)N(Cl)Cl`, the MBC in series [1] and in series [2] was 2 µg/mL (≈ 5.84 µM) throughout. The MFC in series [3] is 1020 µg/mL (≈ 2990 µM). For the same compound, the half-life in series [4] was greater than 112 days; in series [5] it was 85 days.

With `CC(C)(CCS(=O)(=O)CCS(=O)(=O)CCS(=O)(=O)O)N(Cl)Cl`, the minimum bactericidal concentration (MBC) amounted to 2 µg/mL (≈ 4.76 µM) in series [1] and 4 µg/mL (≈ 9.52 µM) in series [2]. In addition, in series [3], the MFC was 32 µg/mL (≈ 76.1 µM). Besides, the half-life in series [4] was greater than 73 days; in series [6], 14 days.

For `CC(C)(CCS(=O)(=O)CC[N+](C)(C)C)N(Cl)Cl.[Cl-]`, the figures for the MBC in series [1] and in series [2] were 8 µg/mL and 2 µg/mL, respectively. Further, in series [3], the MFC turned out to be 32 µg/mL. For the same compound, the half-life in series [4] was 6 days.

In the case of `CC(C)(CCS(=O)(=O)CCC[N+](C)(C)C)N(Cl)Cl.[Cl-]`, the MBC in series [1] was determined as 8 µg/mL; in series [2], 2 µg/mL. Also, the MFC in series [3] turned out to be 32 µg/mL. Besides, the results for the half-life in series [4] and in series [6] were greater than 160 days and 70 days, respectively.

For the compound `CC(C)(CCS(=O)(=O)CCCCCCCCS(=O)(=O)O)N(Cl)Cl`, the results for the minimal bactericidal concentration (MBC) in series [1] and in series [2] were 2 µg/mL (≈ 4.85 µM) and 4 µg/mL (≈ 9.7 µM), respectively. The compound further registered an MFC in series [3] of 8 µg/mL (≈ 19.4 µM). Further, the half-life in series [4] was 182 days; in series [6], 70 days.

Turning to `CC(C)(CCS(=O)(=O)CCCCCCCC[N+](C)(C)C)N(Cl)Cl.[Cl-]`, the MBC in series [1] and in series [2] was 8 µg/mL each time. In series [3], this compound yielded an MFC of 32 µg/mL. Moreover, the results for the half-life in series [4] and in series [5] were 127 days and 74 days, respectively.

Take `CC(C)(CCCS(=O)(=O)CCS(=O)(=O)O)N(Cl)Cl`: the MBC in series [1] came out at 8 µg/mL (≈ 23.4 µM); in series [2], 2 µg/mL (≈ 5.84 µM). For the same compound, in series [3], the MFC was 128 µg/mL (≈ 374 µM). For the same compound, the half-life in series [4] and in series [6] was 45 days in each case.

With `CC(C)(CS(=O)(=O)[O-])N(Cl)Cl.[Na+]`, the MBC in series [1] and in series [2] was 2 µg/mL throughout. The same compound came in with an MFC in series [3] of 32 µg/mL. In addition, the half-life was greater than 730 days in series [4] and greater than 300 days in series [5].

`CC(C)(CS(=O)(=O)CCS(=O)(=O)O)N(Cl)Cl`: the MBC in series [1] was 4 µg/mL (≈ 12.7 µM); in series [2], 8 µg/mL (≈ 25.5 µM). Also, the MFC in series [3] worked out at 64 µg/mL (≈ 204 µM). For the same compound, the half-life was greater than 93 days in series [4] and 1 days in series [5].

As to `CC(C)(C[N+](C)(C)C)N(Cl)Cl.[Cl-]`, the MBC in series [1] stood at 16 µg/mL; in series [2], 8 µg/mL. The MFC in series [3] was 128 µg/mL. Further, the results for the half-life in series [4] and in series [5] were greater than 325 days and greater than 396 days, respectively.
